Assay results from the supplement of paper PMC10307832.

How the values were obtained:
Experiment in all cases: relative viability (nuclei count vs DMSO), 5 days (fraction); higher = more cells survive
Lestaurtinib + Alpelisib = compound: C[C@]12O[C@H](C[C@]1(O)CO)n1c3ccccc3c3c4c(c5c6ccccc6n2c5c31)CNC4=O [Lestaurtinib] + Cc1nc(NC(=O)N2CCC[C@H]2C(N)=O)sc1-c1ccnc(C(C)(C)C(F)(F)F)c1 [Alpelisib] (partner 2 µM)
Method in brief: (§1)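 Five library-drug doses in √10 steps were combined with a fixed anchor-drug dose, or a single drug was given alone, by pin tool to lung cancer cell lines in 1536-well plates the day after seeding. Nuclei were stained and counted after 5 days. Relative viability is the nuclei count in treated wells over that in vehicle wells, taken as the median of duplicate plates.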

TPCA-1 + Crizotinib = compound: C1=CC(=CC=C1C2=CC(=C(S2)NC(=O)N)C(=O)N)F [TPCA-1] + C[C@@H](Oc1cc(-c2cnn(C3CCNCC3)c2)cnc1N)c1c(Cl)ccc(F)c1Cl [Crizotinib] (partner 1 µM)
Method in brief: as §1

TPCA-1 + Alpelisib = compound: C1=CC(=CC=C1C2=CC(=C(S2)NC(=O)N)C(=O)N)F [TPCA-1] + Cc1nc(NC(=O)N2CCC[C@H]2C(N)=O)sc1-c1ccnc(C(C)(C)C(F)(F)F)c1 [Alpelisib] (partner 2 µM)
Method in brief: as §1

[1] = compound: C1/C(=C\C2=CC=CS2)/C(=O)/C(=C/C3=CC=CS3)/C1 + Cc1nc(NC(=O)N2CCC[C@H]2C(N)=O)sc1-c1ccnc(C(C)(C)C(F)(F)F)c1 [Alpelisib] (partner 2 µM)
Method in brief: as §1

| Cell Line | relative viability (Lestaurtinib + Alpelisib; first compound 0.005 µM) | relative viability (Lestaurtinib + Alpelisib; first compound 0.01581 µM) | relative viability (Lestaurtinib + Alpelisib; first compound 0.05 µM) | relative viability (Lestaurtinib + Alpelisib; first compound 0.1581 µM) | relative viability (Lestaurtinib + Alpelisib; first compound 0.5 µM) | relative viability (TPCA-1 + Crizotinib; first compound 0.04 µM) | relative viability (TPCA-1 + Crizotinib; first compound 0.1265 µM) | relative viability (TPCA-1 + Crizotinib; first compound 0.4 µM) | relative viability (TPCA-1 + Crizotinib; first compound 1.265 µM) | relative viability (TPCA-1 + Crizotinib; first compound 4 µM) | relative viability (TPCA-1 + Alpelisib; first compound 0.04 µM) | relative viability (TPCA-1 + Alpelisib; first compound 0.1265 µM) | relative viability (TPCA-1 + Alpelisib; first compound 0.4 µM) | relative viability (TPCA-1 + Alpelisib; first compound 1.265 µM) | relative viability (TPCA-1 + Alpelisib; first compound 4 µM) | relative viability ([1]; first compound 0.2 µM) | relative viability ([1]; first compound 0.6325 µM) | relative viability ([1]; first compound 2 µM) | relative viability ([1]; first compound 6.325 µM) | relative viability ([1]; first compound 20 µM) |
| --- | --- | --- | --- | --- | --- | --- | --- | --- | --- | --- | --- | --- | --- | --- | --- | --- | --- | --- | --- | --- |
| NCI-H2347 | 1.1 | 1.22 | 0.91 | 0.573 | 0.606 | 0.806 | 0.557 | 0.676 | 0.553 | 0.521 | 1.14 | 0.969 | 1.03 | 0.817 | 0.917 | 1.1 | 1.07 | 0.963 | 0.952 | 1.15 |
| NCI-H2405 | 0.842 | 0.643 | 0.488 | 0.367 | 0.258 | 0.908 | 0.773 | 0.797 | 0.547 | 0.905 | 1.06 | 0.599 | 0.805 |  | 0.605 | 0.945 | 0.766 | 0.79 | 0.797 | 0.87 |
| NCI-H3122 | 0.92 | 0.983 | 0.932 | 0.841 | 0.48 | 0.281 | 0.268 | 0.278 | 0.291 | 0.223 | 0.846 | 0.728 | 0.92 | 0.947 | 0.74 | 0.887 | 0.785 | 0.876 | 0.488 | 0.891 |
| PC-3 [JPC-3] | 1.03 | 1.1 | 0.985 | 0.913 | 0.65 | 0.982 | 0.943 | 1.07 | 0.962 | 0.819 | 1.01 | 1.02 | 1.04 | 0.957 | 0.958 | 0.994 | 0.995 | 0.998 | 0.97 | 1.05 |
| PC-14 | 0.973 | 1.01 | 0.465 | 0.602 | 0.471 | 0.818 | 0.864 | 0.891 | 0.832 | 0.615 | 0.952 | 0.879 | 0.965 | 0.787 | 0.75 | 0.95 | 0.898 | 0.889 | 0.676 | 0.995 |
| RERF-LC-KJ | 0.888 | 0.689 | 0.591 | 0.535 | 0.445 | 0.875 | 0.815 | 0.835 | 0.792 | 0.758 | 0.974 | 0.774 | 0.773 | 0.733 | 0.699 | 0.73 | 0.89 | 0.748 | 0.705 | 0.815 |
| SK-LU-1 | 0.652 | 0.613 | 0.436 | 0.536 | 0.258 | 0.862 | 0.667 | 1.07 | 0.675 | 0.556 | 1.16 | 0.805 | 1 | 0.605 | 0.452 | 1.18 | 1.07 | 1.11 | 0.817 | 1.06 |
| SK-MES-1 | 0.862 | 0.337 | 0.332 | 0.302 | 0.229 | 1 | 0.907 | 0.923 | 0.948 | 0.589 | 0.935 | 0.704 | 0.996 | 0.691 | 0.586 | 1.04 | 0.912 | 0.879 | 0.854 | 0.798 |
| SW 1573 | 0.822 | 0.841 | 0.401 | 0.568 | 0.379 | 0.881 | 0.754 | 0.728 | 0.673 | 0.622 | 0.872 | 0.631 | 0.659 | 0.709 | 0.784 | 0.785 | 0.905 | 0.838 | 0.547 | 0.757 |
